The values that follow come from US8242274B2, “Triazolopyridine kinase inhibitors useful for the treatment of degenerative and inflammatory diseases” (Galapagos NV, priority 2008, dated 2012).

Structures are written as SMILES.

Data set [1] addresses T1, Recombinant human JAK2 catalytic domain (Homo sapiens, UniProt O60674).
T1 construct: Recombinant human JAK2 catalytic domain (amino acids 808-1132; catalog number PV4210); purchased Invitrogen PV4210
The experiment in a line: JAK2 inhibition assay. The class given is biochemical. Conditions: semi-quantitative score. Here is the method: Recombinant human JAK2 catalytic domain (amino acids 808-1132; catalog number PV4210) was purchased from Invitrogen. 0.025 mU of JAK2 was incubated with 2.5 μg polyGT substrate (Sigma catalog number P0275) in kinase reaction buffer (5 mM MOPS pH 7.5, 9 mM MgAc, 0.3 mM EDTA, 0.06% Brij and 0.6 mM DTT, 1 μM non-radioactive ATP, 0.25 μCi 33P-gamma-ATP (GE Healthcare, catalog number AH9968) final concentrations) with or without 5 μL containing test compound or vehicle (DMSO, 1% final concentration), in a total volume of 25 μL, in a polypropylene 96-well plate (Greiner, V-bottom). After 90 min at 30° C., reactions were stopped by adding of 25 μL/well of 150 mM phosphoric acid. All of the terminated kinase reaction was transferred to prewashed (75 mM phosphoric acid) 96 well filter plates (Perkin Elmer catalog number 6005177) using a cell harvester (Perkin Elmer). Plates were washed 6 times with 300 μL per well of a 75 mM phosphoric acid solution and the bottom of the plates was sealed. 40 μL/well of Microscint-20 was added, the top of the plates was sealed and readout was performed using the Topcount (Perkin Elmer). Kinase activity was calculated by subtracting counts per minute (cpm) obtained in the presence of a positive control inhibitor (10 μM staurosporine) from cpm obtained in the presence of vehicle. The ability of a test compound to inhibit this activity was determined as: Percentage inhibition=((cpm determined for sample with test compound present−cpm determined for sample with positive control inhibitor) divided by (cpm determined in the presence of vehicle−cpm determined for sample with positive control inhibitor))*100%.
Dose dilution series were prepared for the compounds enabling the testing of dose-response effects in the JAK2 assay and the calculation of the IC50 for each compound. Each compound was routinely tested at concentration of 20 μM followed by a 1/3 serial dilution, 8 points (20 μM-6.67 μM-2.22 μM-740 nM-247 nM-82 nM-27 nM-9 nM) in a final concentration of 1% DMSO.

Data set [2] can be described thus: Microsomal stability, human. The class given is in vitro ADME. Particulars: human liver microsomes, 3 μM compound, 37° C. On the procedure: (§1) A 10 mM stock solution of compound in DMSO was diluted 1000 fold in a 182 mM phosphate buffer pH 7.4 in a 96 deep well plate (Greiner, Cat no. 780285) and pre-incubated at 37° C.
(§2) 40 μL of deionised water was added to a well of a polypropylene Matrix 2D barcode labelled storage tube (Thermo Scientific) and pre-incubated at 37° C.
(§3) A Glucose-6-phosphate-dehydrogenase (G6PDH) working stock solution was prepared in 182 mM phosphate buffer pH7.4 and placed on ice before use. A co-factor containing MgCl2, glucose-6-phosphate and NADP+ was prepared in deionised water and placed on ice before use.
(§4) A final working solution containing liver microsomes (Xenotech) of a species of interest (human, mouse, rat, dog), previously described G6PDH and co-factors was prepared and this mix was incubated for no longer than 20 minutes at room temperature.
(§5) 30 μL of the pre-heated compound dilution was added to 40 μL of pre-heated water in the Matrix tubes and 30 μL of the microsomal mix was added. Final reaction concentrations were 3 μM compound, 1 mg microsomes, 0.4 U/mL GDPDH, 3.3 mM MgCl2, 3.3 mM glucose-6-phosphate and 1.3 mM NADP+.
(§6) To measure percentage remaining of compound at time zero MeOH or ACN was added (1:1) to the well before adding the microsomal mix. The plates were sealed with Matrix Sepra Seals™ (Matrix, Cat. No. 4464) and shaken for a few seconds ensure complete mixing of all components.
(§7) The samples which were not stopped are incubated at 37° C., 300 rpm and after 1 hour of incubation the reaction was stopped with MeOH or ACN (1:1).
(§8) After stopping the reaction the samples were mixed and placed on ice for 30 min to precipitate the proteins. The plates were then centrifuged 30 min at 1200 rcf at 4° C. and the supernatant was transferred to a 96 v-bottom PP plate (Greiner, 651201) for analysis on LCMS.
(§9) These plates were sealed with sealing mats (MA96RD-04S) of www.kinesis.co.uk and samples were measured at room temperature on LCMS (ZQ 1525 from Waters) under optimized conditions using Quanoptimize to determine the appropriate mass of the parent molecule.
(§10) The samples were analyzed on LCMS with a flow rate of 1 mL/min. Solvent A was 15 mM ammonia and solvent B was methanol or acetonitrile, depending on the stop solution used. The samples were run under positive ion spray on an XBridge C18 […] (2.1×30 mm) column, from Waters.
(§11) Peak area from the parent compound at time 0 was considered to be 100% remaining. The percentage remaining after 1 hour incubation was calculated from time 0 and was calculated as the percentage remaining. The solubility of the compound in the final test concentration in buffer is inspected by microscope and results are reported.
(§12) The data on microsomal stability are expressed as a percentage of the total amount of compound remaining after 60 minutes.
A general note: Liver microsomes are vesicles of endoplasmic reticulum, rich in cytochrome P450 enzymes.

A short description of data set [3]: Microsomal stability, rat. The class given is in vitro ADME. Particulars: rat liver microsomes, 3 μM compound, 37° C. On the procedure:
as §1, §2, §3, §4, §5, §6, §7, §8, §9, §10, §11, §12

The target in data set [4] is T2, Recombinant human JAK1 catalytic domain (Homo sapiens, UniProt P23458).
T2 construct: Recombinant human JAK1 catalytic domain (amino acids 850-1154; catalog number 08-144); purchased Carna Biosciences 08-144
T2 sequence (P23458 850-1154): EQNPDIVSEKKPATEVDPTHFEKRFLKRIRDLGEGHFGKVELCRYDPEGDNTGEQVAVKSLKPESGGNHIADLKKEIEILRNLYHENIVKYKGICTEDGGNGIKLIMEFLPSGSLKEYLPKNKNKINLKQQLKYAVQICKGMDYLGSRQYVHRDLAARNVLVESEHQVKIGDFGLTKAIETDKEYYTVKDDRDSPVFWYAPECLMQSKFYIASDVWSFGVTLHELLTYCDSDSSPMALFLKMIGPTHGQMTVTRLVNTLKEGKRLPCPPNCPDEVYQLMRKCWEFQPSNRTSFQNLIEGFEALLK
The experiment in a line: JAK1 inhibition assay. It is filed as biochemical. Conditions: semi-quantitative score. Here is the method: Recombinant human JAK1 catalytic domain (amino acids 850-1154; catalog number 08-144) was purchased from Carna Biosciences. 10 ng of JAK1 was incubated with 12.5 μg polyGT substrate (Sigma catalog number P0275) in kinase reaction buffer (15 mM Tris-HCl pH 7.5, 1 mM DTT, 0.01% Tween-20, 10 mM MgCl2, 2 μM non-radioactive ATP, 0.25 μCi 33P-gamma-ATP (GE Healthcare, catalog number AH9968) final concentrations) with or without 5 μL containing test compound or vehicle (DMSO, 1% final concentration), in a total volume of 25 μL, in a polypropylene 96-well plate (Greiner, V-bottom). After 45 min at 30° C., reactions were stopped by adding of 25 μL/well of 150 mM phosphoric acid. All of the terminated kinase reaction was transferred to prewashed (75 mM phosphoric acid) 96 well filter plates (Perkin Elmer catalog number 6005177) using a cell harvester (Perkin Elmer). Plates were washed 6 times with 300 μL per well of a 75 mM phosphoric acid solution and the bottom of the plates was sealed. 40 μL/well of Microscint-20 was added, the top of the plates was sealed and readout was performed using the Topcount (Perkin Elmer). Kinase activity was calculated by subtracting counts per minute (cpm) obtained in the presence of a positive control inhibitor (10 μM staurosporine) from cpm obtained in the presence of vehicle. The ability of a test compound to inhibit this activity was determined as: Percentage inhibition=((cpm determined for sample with test compound present−cpm determined for sample with positive control inhibitor)divided by(cpm determined in the presence of vehicle−cpm determined for sample with positive control inhibitor))*100%.
Dose dilution series were prepared for the compounds enabling the testing of dose-response effects in the JAK1 assay and the calculation of the IC50 for each compound. Each compound was routinely tested at concentration of 20 μM followed by a 1/3 serial dilution, 8 points (20 μM-6.67 μM-2.22 μM-740 nM-247 nM-82 nM-27 nM-9 nM) in a final concentration of 1% DMSO.

A short description of data set [5]: Caco2 permeability, bi-directional. Particulars: human, Caco-2; 10 μM, 1 hour, pH 7.4. It is filed as in vitro ADME. Here is the method:
Bi-directional Caco-2 assays were performed as described below. Caco-2 cells were obtained from European Collection of Cell Cultures (ECACC, cat 86010202) and used after a 21 day cell culture in 24-well Transwell plates (Fisher TKT-545-020B).
2×10^5 cells/well were seeded in plating medium consisting of DMEM+GlutaMAXI+1% NEAA+10% FBS (FetalClone II)+1% Pen/Strep. The medium was changed every 2-3 days.
Test and reference compounds (propranolol and rhodamine 123 or vinblastine, all purchased from Sigma) were prepared in Hanks' Balanced Salt Solution containing 25 mM HEPES (pH 7.4) and added to either the apical (125 μL) or basolateral (600 μL) chambers of the Transwell plate assembly at a concentration of 10 μM with a final DMSO concentration of 0.25%.
50 μM Lucifer Yellow (Sigma) was added to the donor buffer in all wells to assess integrity of the cell layers by monitoring Lucifer Yellow permeation. As Lucifer Yellow (LY) cannot freely permeate lipophilic barriers, a high degree of LY transport indicates poor integrity of the cell layer.
After a 1 hour incubation at 37° C. while shaking at an orbital shaker at 150 rpm, 70 μL aliquots were taken from both apical (A) and basal (B) chambers and added to 100 μLl 50:50 acetonitrile:water solution containing analytical internal standard (0.5 μM carbamazepine) in a 96 well plate.
Lucifer yellow was measured with a Spectramax Gemini XS (Ex 426 nm and Em 538 nm) in a clean 96 well plate containing 150 μL of liquid from basolateral and apical side.
Concentrations of compound in the samples were measured by high performance liquid-chromatography/mass spectroscopy (LC-MS/MS).
The Efflux ratios, as an indication of active efflux from the apical cell surface, were calculated using the ratio of PappB>A/PappA>B.

The test system of the next data set is TNF release. The experiment in a line: Septic shock model (LPS). It is filed as in vivo, mice. Particulars: 3 mg/kg. On the procedure: Injection of lipopolysaccharide (LPS) induces a rapid release of soluble tumour necrosis factor (TNF-alpha) into the periphery. This model is used to analyse prospective blockers of TNF release in vivo.
Six BALB/cJ female mice (20 g) per group were treated at the intended dosing once, po. Thirty minutes later, LPS (15 μg/kg; E. Coli serotype 0111:B4) was injected ip. Ninety minutes later, mice were euthanized and blood was collected. Circulating TNF alpha levels were determined using commercially available ELISA kits. Dexamethasone (5 μg/kg) was used as a reference anti-inflammatory compound. Selected compounds are tested at one or multiple doses, e.g. 3 and/or 10 and/or 30 mg/kg, po.

T1 sequence (O60674 808-1132): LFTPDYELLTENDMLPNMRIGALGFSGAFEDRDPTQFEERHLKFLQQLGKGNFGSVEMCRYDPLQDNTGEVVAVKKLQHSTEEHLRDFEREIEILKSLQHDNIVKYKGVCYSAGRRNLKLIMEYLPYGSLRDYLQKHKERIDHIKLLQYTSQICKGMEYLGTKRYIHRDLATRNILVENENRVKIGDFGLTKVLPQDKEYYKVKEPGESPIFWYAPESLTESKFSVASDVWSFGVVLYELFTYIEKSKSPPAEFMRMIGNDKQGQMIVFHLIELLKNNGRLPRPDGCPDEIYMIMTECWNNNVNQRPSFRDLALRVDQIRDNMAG

For the compound `O=C(Nc1nc2cccc(-c3cccc(OCc4ccccc4)c3)n2n1)C1CC1` [Compound 14, N-(5-(3-(benzyloxy)phenyl)-[1,2,4]triazolo[1,5-a]pyridin-2-yl)cyclopropanecarboxamide], the IC50 (usually the concentration at which inhibition is half-maximal) in data set [1] is greater than 501 nM.
As to `O=C(Nc1nc2cccc(-c3ccc(OCc4ccccc4)c(F)c3)n2n1)C1CC1` [Compound 15, N-(5-(4-(benzyloxy)-3-fluorophenyl)-[1,2,4]triazolo[1,5-a]pyridin-2-yl)cyclopropanecarboxamide], in data set [2], the “Microsomal stability Human (%), compound remaining after 60 minutes” value stood at 43%. Moreover, in data set [3], the “Microsomal stability Rat (%), compound remaining after 60 minutes” value is 14%. Further, the 50% inhibitory concentration (IC50) in data set [4] lay within 0.1 to 100 nM. Besides, in data set [5], the apparent permeability from apical to basolateral (Papp A→B) – broadly, how fast a substance crosses the layer from the apical side – at 1 h, 10 μM was 25.8 ×10⁻⁶ cm/s.
In the same order, the values of `CC(=O)Nc1nc2cccc(-c3ccc(OCc4ccccc4)cc3)n2n1` [Compound 163, N-(5-(4-(benzyloxy)phenyl)-[1,2,4]triazolo[1,5-a]pyridin-2-yl)acetamide] are 53.64%, 39.78%, 0.1 to 100 nM and 13.4 ×10⁻⁶ cm/s.
As to `O=C(Nc1nc2cccc(-c3ccc(OCc4ccc(N5CCCC5)nc4)cc3)n2n1)C1CC1` [Compound 174, N-(5-(4-((6-(pyrrolidin-1-yl)pyridin-3-yl)methoxy)phenyl)-[1,2,4]triazolo[1,5-a]pyridin-2-yl)cyclopropanecarboxamide], the 50% inhibitory concentration (IC50) in data set [4] is greater than 501 nM.
For the compound `O=C(Nc1nc2cccc(-c3ccc(NCc4cccnc4)cc3)n2n1)C1CC1` [Compound 182, N-(5-(4-(pyridin-3-ylmethylamino)phenyl)-[1,2,4]triazolo[1,5-a]pyridin-2-yl)cyclopropanecarboxamide], the “Microsomal stability Human (%), compound remaining after 60 minutes” value in data set [2] turned out to be 19.33%. Moreover, in data set [3], the “Microsomal stability Rat (%), compound remaining after 60 minutes” value is listed as 19.23%. In data set [4], the IC50 was 0.1 to 100 nM.
The like results for `COC(=O)c1ccc(COc2ccc(-c3cccc4nc(NC(=O)C5CC5)nn34)cc2)nc1` [Compound 190] were, in that order, 2.13%, 25.64% and 0.1 to 100 nM.
On to `Cc1ccc(COc2ccc(-c3cccc4nc(NC(=O)C5CC5)nn34)cc2)cn1` [Compound 197, Cyclopropanecarboxylic acid {5-[4-(6-methyl-pyridin-3-ylmethoxy)-phenyl]-[1,2,4]triazolo[1,5-a]pyridin-2-yl}-amide], for which, in data set [2], the “Microsomal stability Human (%), compound remaining after 60 minutes” value was 46.6%. The “Microsomal stability Rat (%), compound remaining after 60 minutes” value in data set [3] turned out to be 59.41%. For the same compound, the half-inhibitory concentration (IC50) in data set [1] was in the range of 1 to 100 nM; in data set [4], 0.1 to 100 nM. In the data set on TNF release, the “activity in the septic shock model” value was “active”.
On to `O=C(Nc1nc2cccc(-c3ccc(OCc4ccc(Cl)nc4)cc3)n2n1)C1CC1` [Compound 198, Cyclopropanecarboxylic acid {5-[4-(6-chloro-pyridin-3-ylmethoxy)-phenyl]-[1,2,4]triazolo[1,5-a]pyridin-2-yl}-amide], for which the “Microsomal stability Human (%), compound remaining after 60 minutes” value in data set [2] was 65.8%. Besides, in data set [3], the “Microsomal stability Rat (%), compound remaining after 60 minutes” value is given as 72.45%. For the same compound, the IC50 in data set [1] lay in the range of 1 to 100 nM; in data set [4] it was 0.1 to 100 nM.
